Data set [1] in a line: Pharmacokinetic study (oral, cannulated rats, LC/MS of plasma). The data set is classed as in vivo, rat. On the procedure: Adult male Wistar rats weighing 278-290 g (Jinvier, France) were used in the study. Animals were housed in a temperature-controlled room (20-24° C.) and maintained in a 12 h light/12 h dark cycle. Food and water were available ad libitum.
For surgery, rats were anaesthetised with a ketamine (90 mg/kg)/xylazine (10 mg/kg) mixture, and cannulated with silicone tubing via the right jugular vein. Prior to the first blood sampling, animals were connected to a counterbalanced system and tubing to perform blood sampling in the freely moving rat.
Separate stock solutions (5 mg/ml) of compound 52 of the invention and prior art substance WO 2006/005484—substance 76 were prepared in Solutol HS 15/PEG300 (3:1). The whole process was performed under constant stirring. Half of the volume of the vehicle was added first. After sonication (5 minutes), the second half of the vehicle was added and the vials were again sonicated. All the solutions were clear and free of particles or agglomerates.
Immediately before application, the dosing mixture was prepared by adding equal volumes of the stock solutions to end up with a final concentration of 1 mg/ml for each compound. The mixture was applied orally to rats with an application volume of 5 ml/kg.
Blood samples (200 μl) were taken 1 hour before application and 1, 2, 4, 6, 8, 12 and 24 hours after. They were centrifuged at 650 g for 10 minutes at 4° C. and then the plasma was harvested and kept at −20° C. until LC/MS analysis.

Data set [2] has as its target T1, LHRH receptor (endogenous GnRH receptor of alpha T3-1 cell line) (Mus musculus, UniProt Q01776).
T1 construct: alpha T3-1 cell line with endogenous GnRH receptor expression; endogenous in cells; host or cells: alpha T3-1 cells (intact cell suspension)
T1 sequence (Q01776 1-327): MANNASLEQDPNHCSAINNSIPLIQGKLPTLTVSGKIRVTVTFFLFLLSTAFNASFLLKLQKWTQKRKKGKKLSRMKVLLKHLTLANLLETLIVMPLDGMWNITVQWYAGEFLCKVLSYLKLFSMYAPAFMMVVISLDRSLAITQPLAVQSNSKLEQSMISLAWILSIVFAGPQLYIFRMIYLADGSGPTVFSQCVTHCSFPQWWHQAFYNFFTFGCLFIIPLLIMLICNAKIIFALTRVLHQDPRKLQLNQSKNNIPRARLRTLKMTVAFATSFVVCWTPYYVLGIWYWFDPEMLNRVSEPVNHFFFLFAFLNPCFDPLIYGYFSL
Description: LHRH-receptor binding assay (displacement of [125I] cetrorelix on alpha T3-1 cells). Conditions: WO 2006/005484-substance 75 = 100%. Here is the method:
For LHRH receptor binding studies, an assay system using alpha T3-1 cell line with endogenous GnRH receptor expression was employed (Windle et al., Mol. Endocrinol. 1990, 4(4): 597-603).
Iodinated cetrorelix was used as a tracer with about 80% of peptide capable of specific receptor association.
For displacement binding assays, the cells were incubated with approximately 200 pM [^125l] cetrorelix and different concentrations of unlabeled test compounds as competitor. The cell suspension in binding medium was layered on top of silicon/paraffin oil, incubated for 60 min at 37° C. and separated by centrifugation. The tips of the tubes containing the cell pellet were cut off, subsequently cell pellet and supernatant were analyzed by gamma-radiation analysis.
The amount of unspecific binding was determined by including unlabeled cetrorelix at 1 μM final concentration and was typically ≦10% of total binding. IC50 values were calculated by using the GraphPad Prism analysis program (GraphPad Software Inc.).
(In general: Loss of bound radioactivity is the signal in a displacement assay; it reports binding, not function.)

Data set [3] can be described thus: Metabolic stability testing in liver microsomes. The data set is classed as in vitro ADME. Conditions: mixed-gender human liver microsomes, 1 mg microsomal protein/mL, initial concentration 10 μM, 60 minutes at 37° C.; WO 2006/005484-substance 7 = 100%. On the procedure:
Subcellular fractions of different tissues can be prepared easily by ultracentrifugation. Most commonly these are prepared from the liver of animals and human donors to gain information about the potential hepatic clearance of compounds (first-pass elimination of drugs). Human or animal (e.g. dog, mouse, rat) subcellular fraction like liver microsomes, or possibly the fraction called S9 have therefore become a very commonly and widely used as an in vitro model to investigate mainly cytochrome P450 dependent phase I (but also phase II) metabolism that takes place in the liver.
In order to reflect the standard proportion of the enzymes in human and animal livers, liver microsomes are usually pooled from a number of […] of the same sex (or mixed-gender). By supplementing the liver microsomes with relevant cofactors and other components it is possible to investigate and distinguish between CYPs, flavin-containing monooxygenase (FMO) and UDP-glucuronosyltransferase (UGT) activities.
Selected compounds of the invention were tested for their stability in mixed-gender human liver microsomes and compared to pertinent prior art compounds.
Under the test conditions applied (1 mg microsomal protein/mL, initial concentration of 10 μM, and incubation for 60 minutes at 37° C.) the following normalized results were obtained.

Another data set concerns plasma testosterone. The experiment in a line: Testosterone suppression experiment (plasma testosterone ELISA). The class given is in vivo, rat. Conditions: male Wistar rats, po in Solutol HS15/PEG300 (3:1), samples up to 24 h post-dose. On the procedure: Male Wistar rats weighing 248-296 g (Janvier, France) were used in the present study. Animals were housed in a temperature-controlled room (20-22° C.) and maintained in a 12 h light/12 h dark cycle. Food and water were available ad libitum.
Rats were anaesthetised with a ketamine (135 mg/kg)/xylazine (10 mg/kg) mixture, and cannulated with silicone tubing via the right jugular vein. Prior to the first blood sampling, animals were connected to a counterbalanced system and tubing, to perform blood sampling in the freely moving rat.
The dosing solutions were prepared immediately before application. […]
The concentrations of testosterone in the rat plasma samples were determined using the Testosterone ELISA (EIA-1559) from DRG Instruments according to the manufacturer's instructions. […] The plate was read within the next 30 min with a Spectramax Plus (Molecular Devices) at 450 nm. The concentration of testosterone in the samples was calculated from the standard curve and is inversely proportional to the optical density measured.
Due to the pulsatile release of testosterone in intact rats, two pre-treatment samples ere collected to establish baseline values prior the administration of the compound. […] The pre-treatment mean value was compared to the testosterone levels measured after application.

[4] abbreviates: rat, plasma, male Wistar rats, oral, 5 mg/kg, mixture of both compounds in Solutol HS 15/PEG300 (3:1).

Where a name gives a salt, the structure may show the parent alone.

Consider `CCC(C)[C@H](NC(=O)Cc1ccccc1F)C(=O)N[C@]1(C(=O)N[C@H](C(=S)NCC2CCOCC2)C(C)CC)CCc2[nH]c3c(C(F)(F)F)cccc3c2C1` (stereo partly drawn) [Compound 52, (R)-3-{(S)-2-[2-(2-Fluoro-phenyl)-acetylamino]-3-methyl-pentanoylamino}-8-trifluoromethyl-2,3,4,9-tetrahydro-1H-carbazole-3-carboxylic acid {(S)-2-methyl-1-[(tetrahydro-pyran-4-ylmethyl)-thiocarbamoyl]-butyl}-amide], for which, in data set [1] (setting [4]), the AUC(0-t) (as a rule, exposure summed from dosing to a finite time, without extrapolation to infinity) is 306 ng·h/mL; the Cmax – broadly, the highest concentration seen after dosing – was determined as 38.2 ng/mL; the Tmax (commonly the time at which the peak concentration occurs) was 4 h. For the same compound, the “higher AUC compared to the pertinent prior art substance (indicative for bioavailability)” value in data set [1] (versus WO 2006/005484-substance 76, rats, oral 5 mg/kg) is “more than 300%”. Also, the “Normalized Affinity” value in data set [2] turned out to be 218%. This compound gave a Normalized microsomal stability in data set [3] of 178%.
As for `CCC(C)[C@H](NC(=O)Cc1ccccc1F)C(=O)N[C@]1(C(=O)N[C@H](C(=O)Nc2ccc(OC)c(O)c2)C(C)CC)CCc2[nH]c3c(C(F)(F)F)cccc3c2C1` (stereo partly drawn) [Compound 69, (R)-3-{(S)-2-[2-(2-Fluoro-phenyl)-acetylamino]-3-methyl-pentanoylamino}-8-trifluoromethyl-2,3,4,9-tetrahydro-1H-carbazole-3-carboxylic acid [(S)-1-(3-hydroxy-4-methoxy-phenylcarbamoyl)-2-methyl-butyl]-amide], in data set [2], the “Normalized Affinity” value was 529%. In addition, in data set [3], the Normalized microsomal stability was 1041%.
`CCC(C)[C@H](NC(=O)Cc1ccccc1F)C(=O)N[C@]1(C(=O)N[C@H](C(=S)NCCCn2ccnc2)C(C)CC)CCc2[nH]c3c(C(F)(F)F)cccc3c2C1` (stereo partly drawn) [Compound 74, (R)-3-{(S)-2-[2-(2-Fluoro-phenyl)-acetylamino]-3-methyl-pentanoylamino}-8-trifluoromethyl-2,3,4,9-tetrahydro-1H-carbazole-3-carboxylic acid [(S)-1-(3-imidazol-1-yl-propylthiocarbamoyl)-2-methyl-butyl]-amide]: the “Normalized Affinity” value in data set [2] came to 247%. In data set [3], this compound came in with a Normalized microsomal stability of 1889%.
With `CCC(C)[C@H](NC(=O)Cc1ccccc1F)C(=O)N[C@]1(C(=O)N[C@H](C(=S)NCCN2CCOCC2)C(C)CC)CCc2[nH]c3c(C(F)(F)F)cccc3c2C1` (stereo partly drawn) [compound 54 (TFA salt), (R)-3-{(S)-2-[2-(2-Fluoro-phenyl)-acetylamino]-3-methyl-pentanoylamino}-8-trifluoromethyl-2,3,4,9-tetrahydro-1H-carbazole-3-carboxylic acid [(S)-2-methyl-1-(2-morpholin-4-yl-ethylthiocarbamoyl)-butyl]-amide], the “Normalized Affinity” value in data set [2] came out at 247%. In addition, in the data set on plasma testosterone, the “mean plasma testosterone concentration over time (FIG. 2)” value was “testosterone suppression”.

For the origin of these results see US8541462B2, “Tetrahydrocarbazole derivatives as ligands of G-protein coupled receptors” (AEterna Zentaris GmbH, priority 2007, dated 2013).
